This is an account of results in patent US11298345B2, “Compounds that modulates AMPA receptor function” (University College Cardiff Consultants Limited, priority 2018, dated 2022).

The assay deals with T1, human GluR2 flip (unedited) AMPA receptor subunit (Homo sapiens, UniProt P42262).
T1 construct: host or cells: HEK 293
T1 sequence (P42262 22-883 isoform P42262-2 limits assumed): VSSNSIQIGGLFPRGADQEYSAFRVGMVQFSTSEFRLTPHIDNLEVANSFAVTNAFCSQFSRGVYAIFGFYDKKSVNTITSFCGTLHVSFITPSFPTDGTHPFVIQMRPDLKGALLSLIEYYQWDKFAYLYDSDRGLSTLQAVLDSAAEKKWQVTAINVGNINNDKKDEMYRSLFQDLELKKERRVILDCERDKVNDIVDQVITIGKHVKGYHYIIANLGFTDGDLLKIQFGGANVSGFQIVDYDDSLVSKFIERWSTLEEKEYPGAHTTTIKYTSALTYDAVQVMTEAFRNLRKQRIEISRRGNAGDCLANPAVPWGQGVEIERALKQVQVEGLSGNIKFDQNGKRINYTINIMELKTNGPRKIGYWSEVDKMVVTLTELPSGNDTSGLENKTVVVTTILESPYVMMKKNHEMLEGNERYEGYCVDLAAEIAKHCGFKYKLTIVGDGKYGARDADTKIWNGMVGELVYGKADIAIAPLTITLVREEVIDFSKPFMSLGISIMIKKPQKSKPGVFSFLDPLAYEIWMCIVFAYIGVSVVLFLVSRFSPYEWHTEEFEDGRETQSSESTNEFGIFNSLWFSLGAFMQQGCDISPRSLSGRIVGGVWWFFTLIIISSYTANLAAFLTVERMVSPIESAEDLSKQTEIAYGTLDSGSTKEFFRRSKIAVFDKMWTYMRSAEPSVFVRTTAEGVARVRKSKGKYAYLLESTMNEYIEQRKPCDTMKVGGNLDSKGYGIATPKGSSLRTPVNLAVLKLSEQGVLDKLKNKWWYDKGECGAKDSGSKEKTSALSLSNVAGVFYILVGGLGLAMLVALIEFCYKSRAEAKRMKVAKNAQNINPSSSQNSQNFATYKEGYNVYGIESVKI
Description: AMPA calcium ion influx assay. The format is cell-based. To be noted: HEK293; test compound concentration of 10 μM; HEK 293 cells expressing human GluR2 flip; glutamate stimulus; read-out: Mean % response at 10 μM. An excerpt:
The potentiation of AMPA receptors by the compounds of the invention may be assessed by measuring calcium ion influx via AMPA receptors upon exposure of the receptor to glutamate in the presence of a test compound. One such assay is the calcium ion influx assay described in the Examples using cells which express human GluR2 flip (GluA2 flip) AMPA receptor subunits which form functional homotetrameric AMPA receptors. The GluA2 flip sub-units are highly expressed in cortical and sub-cortical brain tissue (Ward et al., 2010, ibid).
The ability of the compounds of the invention to potentiate glutamate receptor-mediated response was determined using fluorescent calcium-indicator dye.
96 well plates were prepared containing confluent monolayer of HEK 293 cells stably expressing human GluR2 flip (unedited) AMPA receptor subunit (obtained from GlaxoSmithKline). These cells form functional homotetrameric AMPA receptors. The tissue culture medium in the wells was discarded and the wells were each washed three times with standard buffer for the cell line ([…] NaCl, 5 mM KCl, 1 mM MgCl2, 2 mM CaCl2, 20 mM N-[2-hydroxyethyl]-piperazine-N-[2-ethanesulfonic acid (HEPES), 5.5 mM glucose, pH7.3). The plates were then incubated for 60 minutes in the dark with 2 μM Calcium 6 dye (Molecular Devices). After incubation, each well was washed three times with buffer (80 μl).
Compounds of the invention were dissolved in dimethylsulfoxide (DMSO) at a stock concentration of 10 mM. These solutions were further diluted with DMSO. Each dilution (4 μl) to another compound plate and buffer (200 μl) was added. An agonist stimulus plate (glutamate) was prepared by dissolving sodium glutamate in water to give a concentration of 100 mM. This solution was diluted with buffer to give a final concentration of 500 μM and dispensed into another 96 well plate (200 μl/well).
The cell plate was then transferred to a fluorescence imaging plate reader such as the Flexstation 3 (Molecular Devices). A baseline fluorescence was taken over a 10 to 240 second period and then 40 μl from each plate containing a compound of the invention made up in standard buffer solution was added. Volumes were chosen to give a final concentration range of 40 μM to 4 μM. The fluorescence was then read over a 4 minute period. The activities of the compounds were determined by measuring peak fluorescence after the last addition. The activity can also be expressed relative to the fluorescence increase induced by cyclothiazide at their maximum response (i.e. greater than 40 μM).
On to `Cc1cc(C(F)(F)F)nc(-c2ccc(CN3CCOCC3=O)cc2)c1CF` [Example 20, 4-[[4-[3-(Fluoromethyl)-4-methyl-6-(trifluoromethyl)-2-pyridyl]phenyl]methyl]morpholin-3-one], for which the activation at 10 µM came out at 112%.

For `O=C1CCCN1Cc1ccc(-c2cc(CO)cc(C(F)(F)F)n2)cc1` [Example 25, 1-[[4-[4-(Hydroxymethyl)-6-(trifluoromethyl)-2-pyridyl]phenyl]methyl]pyrrolidin-2-one], the activation at 10 µM amounted to 8%.

As to `O=C1CCCN1Cc1ccc(-c2nc(C(F)(F)F)ncc2CF)cc1` [Example 18, 1-[[4-[5-(Fluoromethyl)-2-(trifluoromethyl)pyrimidin-4-yl]phenyl]methyl]pyrrolidin-2-one], the activation at 10 µM was 5%.

Turning to `Cc1cc(C(F)(F)F)nc(-c2ccc(CN3CCCC3=O)cc2)n1` [Example 27, 1-[[4-[4-Methyl-6-(trifluoromethyl)pyrimidin-2-yl]phenyl]methyl]pyrrolidin-2-one], the activation at 10 µM is 27%.

As for `CNC(=O)c1c(C)cc(C(F)(F)F)nc1-c1ccc(CN2CCCC2=O)cc1` [Example 3, N,4-Dimethyl-2-[4-[(2-oxopyrrolidin-1-yl)methyl]phenyl]-6-(trifluoromethyl)pyridine-3-carboxamide], the activation at 10 µM came out at 4%.

Take `Cc1cc(C(F)(F)F)nc(-c2ccc(CN3CCOCCC3=O)cc2)c1CO` [Example 13, 4-[[4-[3-(Hydroxymethyl)-4-methyl-6-(trifluoromethyl)-2-pyridyl]phenyl]methyl]-1,4-oxazepan-5-one]: the activation at 10 µM was found to be 5%.

Consider `Cc1cc(C(F)(F)F)nc(-c2ccc(CN3CCOCC3=O)cc2)c1C#N` [Example 24, 4-Methyl-2-[4-[(3-oxomorpholin-4-yl)methyl]phenyl]-6-(trifluoromethyl)pyridine-3-carbonitrile], for which the activation at 10 µM was 39%.

Regarding `Cc1cc(C(F)(F)F)nc(-c2ccc(CN3CCCC3=O)cc2)c1CF` [Example 17, 1-[[4-[3-(Fluoromethyl)-4-methyl-6-(trifluoromethyl)-2-pyridyl]phenyl]methyl]pyrrolidin-2-one], the activation at 10 µM worked out at 111%.

As for `O=C1COCCN1Cc1ccc(-c2nc(C(F)(F)F)ccc2CO)cc1` [Example 10, 4-[[4-[3-(Hydroxymethyl)-6-(trifluoromethyl)-2-pyridyl]phenyl]methyl]morpholin-3-one], the activation at 10 µM amounted to 3%.

Regarding `O=C1CCCN1Cc1ccc(-c2nc(C(F)(F)F)ccc2CF)cc1` [Example 19, 1-[[4-[3-(Fluoromethyl)-6-(trifluoromethyl)-2-pyridyl]phenyl]methyl]pyrrolidin-2-one], the activation at 10 µM was 70%.

Take `Cc1cc(C(F)(F)F)nc(-c2ccc(CN3CCCC3=O)nc2)c1CF` [Example 22, 1-[[5-[3-(Fluoromethyl)-4-methyl-6-(trifluoromethyl)-2-pyridyl]-2-pyridyl]methyl]pyrrolidin-2-one]: the activation at 10 µM stood at 93%.

Take `O=C1CCCN1Cc1ccc(-c2ccc(CF)c(C(F)(F)F)n2)cc1` [Example 16, 1-[[4-[5-(Fluoromethyl)-6-(trifluoromethyl)-2-pyridyl]phenyl]methyl]pyrrolidin-2-one]: the activation at 10 µM amounted to 28%.

For the compound `O=C1CCCN1Cc1ccc(-c2nc(C(F)(F)F)ccc2CO)cc1` [Example 4, 1-[[4-[3-(Hydroxymethyl)-6-(trifluoromethyl)-2-pyridyl]phenyl]methyl]pyrrolidin-2-one], the activation at 10 µM was determined as 9%.

On to `O=C1CCCN1Cc1ccc(-c2ccc(CO)c(C(F)(F)F)n2)cc1` [Example 1, 1-[[4-[5-(Hydroxymethyl)-6-(trifluoromethyl)-2-pyridyl]phenyl]methyl]pyrrolidin-2-one], for which the activation at 10 µM was determined as 33%.

In the case of `O=C1COCCN1Cc1ccc(-c2ccc(CO)c(C(F)(F)F)n2)cc1` [Example 8, 4-[[4-[5-(Hydroxymethyl)-6-(trifluoromethyl)-2-pyridyl]phenyl]methyl]morpholin-3-one], the activation at 10 µM was 14%.

On to `O=C1COCCN1Cc1ccc(-c2nc(C(F)(F)F)ccc2CF)cc1` [Example 21, 4-[[4-[3-(Fluoromethyl)-6-(trifluoromethyl)-2-pyridyl]phenyl]methyl]morpholin-3-one], for which the activation at 10 µM is 16%.

`N#Cc1ccc(C(F)(F)F)nc1-c1ccc(CN2CCCC2=O)nc1` [Example 15, 2-[6-[(2-Oxopyrrolidin-1-yl)methyl]-3-pyridyl]-6-(trifluoromethyl)pyridine-3-carbonitrile]: the activation at 10 µM came out at 6%.

`Cc1cc(C(F)(F)F)nc(-c2ccc(CN3CCCOCC3=O)cc2)c1CO` [Example 12, 4-[[4-[3-(Hydroxymethyl)-4-methyl-6-(trifluoromethyl)-2-pyridyl]phenyl]methyl]-1,4-oxazepan-3-one]: the activation at 10 µM turned out to be 9%.

On to `Cc1cc(C(F)(F)F)nc(-c2ccc(CN3CCCC3=O)cc2)c1C#N` [Example 5, 4-Methyl-2-[4-[(2-oxopyrrolidin-1-yl)methyl]phenyl]-6-(trifluoromethyl)pyridine-3-carbonitrile], for which the activation at 10 µM was found to be 99%.

In the case of `Cc1cc(C(F)(F)F)nc(-c2ccc(CN3CCOCC3=O)cc2)c1CO` [Example 9, 4-[[4-[3-(Hydroxymethyl)-4-methyl-6-(trifluoromethyl)-2-pyridyl]phenyl]methyl]morpholin-3-one], the activation at 10 µM stood at 14%.

As to `Cc1cc(C(F)(F)F)nc(-c2ccc(CN3CCCC3=O)cc2)c1CO` [Example 2, 1-[[4-[3-(Hydroxymethyl)-4-methyl-6-(trifluoromethyl)-2-pyridyl]phenyl]methyl]pyrrolidin-2-one], the activation at 10 µM is 41%.

For the compound `N#Cc1ccc(C(F)(F)F)nc1-c1ccc(CN2CCCC2=O)cc1` [Example 7, 2-[4-[(2-Oxopyrrolidin-1-yl)methyl]phenyl]-6-(trifluoromethyl)pyridine-3-carbonitrile], the activation at 10 µM amounted to 21%.

With `COCc1cc(-c2ccc(CN3CCCC3=O)cc2)nc(C(F)(F)F)c1` [Example 26, 1-[[4-[4-(Methoxymethyl)-6-(trifluoromethyl)-2-pyridyl]phenyl]methyl]pyrrolidin-2-one], the activation at 10 µM came out at 4%.

As to `Cc1nc(C(F)(F)F)nc(-c2ccc(CN3CCCC3=O)cc2)c1C` [Example 6, 1-[[4-[5,6-Dimethyl-2-(trifluoromethyl)pyrimidin-4-yl]phenyl]methyl]pyrrolidin-2-one], the activation at 10 µM was found to be 29%.

For the compound `Cc1cc(C(F)(F)F)nc(-c2ccc(CN3CCCC3=O)nc2)c1CO` [Example 14, 1-[[5-[3-(Hydroxymethyl)-4-methyl-6-(trifluoromethyl)-2-pyridyl]-2-pyridyl]methyl]pyrrolidin-2-one], the activation at 10 µM was found to be 5%.

As for `O=C1CCCN1Cc1ccc(-c2nc(C(F)F)ccc2CO)cc1` [Example 28, 1-[[4-[6-(Difluoromethyl)-3-(hydroxymethyl)-2-pyridyl]phenyl]methyl]pyrrolidin-2-one], the activation at 10 µM turned out to be 2%.

Take `O=C1CCCN1Cc1ccc(-c2nc(C(F)(F)F)ccc2CF)cn1` [Example 23, 1-[[5-[3-(Fluoromethyl)-6-(trifluoromethyl)-2-pyridyl]-2-pyridyl]methyl]pyrrolidin-2-one]: the activation at 10 µM amounted to 9%.

In the case of `N#Cc1ccc(C(F)(F)F)nc1-c1ccc(CN2CCOCC2=O)cc1` [Example 11, 2-[4-[(3-Oxomorpholin-4-yl)methyl]phenyl]-6-(trifluoromethyl)pyridine-3-carbonitrile], the activation at 10 µM is 11%.
